Data: PMC12081877 (Nature Communications, 2025)

Key:
a panel of M^pro mutants = assay type: biochemical, SARS-CoV-2
ISM3312 P18 virus = assay type: cell-based, SARS-CoV-2

Row | SMILES | resistance level (a panel of M^pro mutants) | resistance level against the ISM3312 P18 virus (ISM3312 P18 virus)
1 | Cn1cnc(Cn2c(=O)[nH]/c(=N\c3cc4cn(C)nc4cc3Cl)n(Cc3cc(F)c(F)cc3F)c2=O)n1 [Ensitrelvir] | moderate- to high-levels resistance | –
2 | CC(C)(C)[C@H](NC(=O)C(F)(F)F)C(=O)N1C[C@H]2[C@@H]([C@H]1C(=O)N[C@H](C#N)C[C@@H]1CCNC1=O)C2(C)C [Nirmatrelvir] | – | no resistance (key: white, no resistance ( < threefold); light blue, low-level resistance (3- to 10-fold); Medium blue, moderate-level resistance (10- to 50-fold); dark blue, high-level resistance ( > 50-fold))
